According to patent publication US20040006070A1, “Intraspinal continuous infusion of midazolam hydrochloride for the treatment of pain” (priority 2002, published 2004):
Several values for one entry are separate records, joined by “and”; a condition that tells them apart may be missing. Identical values can stand only once. Entries after “also recorded” stand apart in the source; their conditions may differ. Counter-ions that a name gives are not always drawn.

Tests used:
[1] = 1-5 mg/day, prior art; cited from earlier work
[2] = system: neuropathic pain model in the sheep; experiment: Neuropathic pain model in sheep, behavior monitoring (Observer 3.0) with visual analog pain score; format: in vivo; settings: for average pain score: sheep #980 Dudley
Source text: The neuropathic pain model in the sheep is created by placing four tight ligatures around the median, radial, or ulnar nerve (or a combination thereof) with 0-chromic gut suture. This method produces a chronic painful peripheral mononeuropathy which may be related to those conditions seen in humans with causalgia and reflex sympathetic dystrophy.
To evaluate animal behavior, the Observer 3.0 software (Noldus Information Technology, The Netherlands) was used to aid docmentation of a daily record of multiple traits. […] The behavior was then interpreted into a visual analog pain score (VAS), where 0 represents no pain and 100 represents severe pain.
Approximately three days prior to surgery each sheep will undergo a 15-minute baseline behavior evaluation. The observations made in this evaluation include, a computerized behavior software recording (the Observer) for 15minutes—gait monitoring—and recording of pain perception via visual analog scale-using the Observer. In some animals, recording of vital signs (blood pressure, heart rate, respirations per minute) will be performed using the Observer. Baseline values for pain perception are recorded via the mechanical stimulus device and/or behavior monitoring will also be performed at this time.
The sheep will be observed daily postoperatively. […] Observations of neuropathic pain development include changes in ambulation, alertness, appetite, urination, defecation, herding activity, body temperature and pain behaviors. This daily behavior is recorded utilizing the observer (an observational software system).

[3] = Toxicity in neuropathic pain sheep: clinical signs, necropsy, histopathology; format: in vivo
Source text: Animals will be observed daily for any signs of clinical toxicity such as limping and loss of appetite. At necropsy the spinal cord will be examined for any gross changes. Histopathologic evaluation will be performed on all animals after drug studies are complete. These examinations will detect any neurotoxicity that may be present due to the spinal infusion of midazolam.

[4] = system: Acute Pain Sheep Model; experiment: Mechanical stimulus device nociceptive testing (% MPE), acute pain sheep model; format: in vivo
Experimental: Open-label (known dose) trial: A trial with known midazolam doses was performed in the first 7 sheep. Animals were administered 3 mg/day (N=1), 5 mg/day (N=1), 10 mg/day (N=1), and 15 mg/day (N=4) for 43 days. These doses were chosen based upon previous intrathecal bolus dose studies in rats and humans, with conversion of from species to species based on cerebral spinal fluid (CSF) production rate and total CSF volume. Analgesic activity was assessed using a mechanical stimulus device which produces a stimulus of acute pain by application of force via a blunt needle applied to the shaved front foreleg of the animal. Force is applied with increasing pressure until the animal lifts its leg in response to the painful stimulus. To evaluate the analgesic effect of midazolam, response latencies were expressed as a percentage of the maximum possible effect, % MPE. The response latency is defined as follows: [formula]
A mechanical stimulus device was used for the pain stimulus. […] The force applied to the pin was measured by strain gauges that are incorporated into the device on the leg. The output from the strain gauges was recorded on a millivoltmeter in the control box. […] To compare the effects of midazolam, the data were accumulated over the testing period, and all response latencies were expressed as percentage of the maximum possible effect (MPE) where: [formula] […]

[5] = Toxicity testing of midazolam in the pig model, closed label (swine data); format: in vivo
Experimental: Another closed label study was performed in pigs. This study was performed in response to implications of possible species-related toxicity reported by researchers in Turkey and France (Malinovsky et al., 1991; Svensson et al., 1995; Erdine et al, 1999). […] Rats were administered single or multiple bolus doses for 20 days. Rabbits were administered bolus injections of 0.1% midazolam (pH 3.3) in 0.3 ml or preservative-free midazolam (pH 3.5) in 0.3 ml for one day or five consecutive days. To further assess the safety of spinally administered midazolam by continuous infusion in a second species, three pigs were instrumented with Medtronic SynchroMed® intrathecal infusion systems. Pigs were administered 15 mg/day (N=2), or saline control (N=1).

[6] = sheep Rowdy #819, 5 mg, daily values, hydrochloride, on May 29, 2001
[7] = sheep Rowdy #819, 5 mg, daily values, hydrochloride, on May 30, 2001
[8] = CSF, individual pigs, 15 mg, hydrochloride
[9] = individual pigs, Drug Dose 15 mg, hydrochloride
[10] = pigs, 15 mg/day continuous intrathecal infusion (N=2)

Compound: Cc1ncc2n1-c1ccc(Cl)cc1C(c1ccccc1F)=NC2 [Midazolam, midazolam hydrochloride]
- toxicities reported [1]: Sedation and somnolence
- VAS score (0 no pain, 100 severe pain) ([2]; average on most days, intrathecal 3 to 6 mg/day, saline pretreatment 60 to 95): approximately 30
- VAS score, average ([2]; first sheep (Rowdy), 5 mg/day): 30%
- analgesia at higher doses ([2]; first sheep (Rowdy), after dose escalation to 15 mg/day): less analgesia
- analgesic activity against neuropathic pain ([2]; intrathecal up to 5 mg/day): had analgesic activity against neuropathic pain
- average pain score ([2]; 3 mg/day for 13 days): 32%
- average pain score ([2]; 6 mg/day, remainder of the study): 35%
- average pain score ([2]; reinstituted 3 mg/day escalated to 5 mg/day over 7 days): 65%
- Other behavior: Observe operated leg ([2]; sheep Rowdy #819, 5 mg): 0.56%
- Eating [2, 6]: 69.88%
- Holding operated leg off the ground [2, 6]: 5.77%
- Holding unoperated leg off the ground [2, 6]: 0.90%
- Walking [2, 6]: 5.07%
- Eating [2, 7]: 83.94%
- Holding operated leg off the ground [2, 7]: 6.24%
- Holding unoperated leg off the ground [2, 7]: 0.56%
- Walking [2, 7]: 4.22%
- Other behavior: Eating lying down ([2]; sheep Rowdy #819, 10 mg): 0.29%
- Eating ([2]; sheep Rowdy #819, 15 mg): 3.29%
- Holding operated leg off the ground ([2]; sheep Rowdy #819, 15 mg): 8.55%
- Holding unoperated leg off the ground ([2]; sheep Rowdy #819, 15 mg): 0.81%
- Other behavior: Bleating ([2]; sheep Rowdy #819, 15 mg): 0.86%
- Other behavior: Pulling wool ([2]; sheep Rowdy #819, 15 mg): 1.11%
- Other behavior: Standing ruminating ([2]; sheep Rowdy #819, 15 mg): 70.19%
- Pain Score ([2]; sheep Rowdy #819, 15 mg): 40
- Standing ([2]; sheep Rowdy #819, 15 mg): 13.79%
- Walking ([2]; sheep Rowdy #819, 15 mg): 1.40%
- tolerability ([3]; intrathecal up to 5 mg/day): tolerated well
- necropsy, spinal cord lesions ([3]; sheep #980 Dudley): did not exhibit any spinal cord lesions
- pain relief ([4]; closed-label study, 5 or 15 mg/day intrathecal): significant pain relief
- pain relief ([4]; open-label trial, all treated animals, 5-15 mg/day intrathecal for 43 days): significant pain relief
- Routine Cultures Post Mortum ([5]; CSF, individual pigs, 15 mg, cell wraps 'No' / 'Growth'): No
- Glucose Post Mortum [5, 8]: 11 mg/dL and 31 mg/dL
- Gross Exam Post Mortum [5, 8]: Colorless; also recorded: cloudy; also recorded: clear
- RBC Count Post Mortum [5, 8]: 1,350 /ul and 0 /ul
- Total Protein Post Mortum [5, 8]: 73 mg/dL and 39 mg/dL
- WBC Count Post Mortum [5, 8]: 888 µL⁻¹ and 117 µL⁻¹
- clinical symptoms ([5]; individual pigs, Drug Dose 15 mg): none
- Final Weight [5, 9]: 147 and 170
- Histopathological Changes [5, 9]: Most foreign body reaction in all the pigs; also recorded: The least foreign body reaction in all the pigs. The spinal reaction
- clinical or gross changes at necropsy [5, 10]: No clinical or gross changes at necropsy were observed
- histology, toxicity related to the infusion [5, 10]: no evidence of toxicity related to the midazolam infusion
